In paper PMC8485799, “Synthesis and Antiprotozoal Profile of 3,4,5‐Trisubstituted Isoxazoles” (ChemistryOpen, 2021):
Read-outs that look alike come from different tables or passages of the source.

What was measured:
[1] = tested on: epimastigote forms of Trypanosoma cruzi (Y strain); assay: Antiproliferative assay (XTT), epimastigote forms, 96 h; type: cell-based; conditions: for IC50: Trypanosoma cruzi, 96 h, read-out: T. cruzi IC50; for SIT-F, selectivity index (Fibroblast CC50/T. cruzi IC50): fibroblast vs epimastigote; for SIT-M, selectivity index (Macrophages CC50/T. cruzi IC50): macrophages vs epimastigote
Experimental: (§1) The antiproliferative activity was determined in promastigote forms of Leishmania amazonensis (WHOM/BR/75/JOSEFA strain) and epimastigote forms of Trypanosoma cruzi (Y strain). The promastigote forms of L. amazonensis were cultured in Warren medium (brain heart infusion, hemin, and folic acid; pH 7.4) supplemented with 10 % fetal bovine serum (FBS) at 25 °C. The epimastigote forms of T.cruzi were cultured in LIT medium (liver infusion tryptose; hemin, and folic acid; pH 7.4) supplemented with 10 % FBS at 28 °C. Cytotoxicity in mammalian cells was determined in fibroblast line (L929) and macrophages (J774 A1). Fibroblasts were cultured in DMEM medium (pH 7.2) supplemented with 10 % FBS at 37 °C in a 5 % CO2 atmosphere. Macrophages were cultured in RPMI‐1640 (pH 7.2) medium supplemented with 10 % FBS at 37 °C in a 5 % CO2 atmosphere.
(§2) Stock solutions of the compounds were prepared in DMSO and then diluted in the respective medium.
(§3) Promastigote forms (1×10^6 parasites.mL^−1) were cultured in 96‐well plates in the presence and absence of different concentrations of compounds diluted in Warren medium supplemented with 10 % FBS and incubated for 72 h. The epimastigote forms (1×10^6 parasites.mL^−1) were cultured in 96‐well plates in the presence and absence of different concentrations of compounds diluted in LIT medium supplemented with 10 % FBS and incubated for 96 h. After treatment, the parasites were incubated with a solution of 2,3‐bis(2‐methoxy‐4‐nitro‐5‐sulfophenyl)‐2H‐tetrazolium‐5‐carboxanilide (XTT; 0.5 mg.mL^−1) and phenazine methanesulfonate activator (PMS; 0.06 mg.mL^−1) in PBS for 4 h. Then, the absorbance was read in a microplate reader (Bio Tek‐Power Wave XS) at 450 nm.[20] The percentage of viable parasites was calculated in relation to the control in order to determine the concentration that inhibits 50 % of the protozoa (IC50). The control groups of each experiment received the same experimental conditions as the treated groups (cell concentration used, temperature, and incubation time).

[2] = Cytotoxicity assay in mammalian cells (MTT), macrophages, 48 h; type: cell-based; conditions: mouse, pH 7.2, 50 % inhibition of macrophages growth, 48 h, MTT
Experimental: as §1, §2
(§4) Fibroblast cell (2.5×10^5 cells.mL^−1) suspensions were prepared in DMEM medium supplemented with 10 % FBS and added to 96‐well plates. Then, the plates were incubated at 37 °C in a CO2 atmosphere for 24 h to obtain confluent cell growth. After incubation, cells were treated with different concentrations of compounds diluted in DMEM for 72 h or left untreated. Macrophage (5×10^5 cells.mL^−1) suspensions were prepared in RPMI‐1640 medium supplemented with 10 % FBS and added to 96‐well plates. Then, the plates were incubated at 37 °C in a CO2 atmosphere for 24 h to obtain confluent cell growth. After incubation, cells were treated with different concentrations of compounds diluted in RPMI‐1640 for 48 h or left untreated. After treatment, the medium was removed, and cells were incubated with MTT (2 mg.mL^−1) for 4 h. Then, DMSO was added for solubilization of the formazan and analyzed with a reading microplate reader (BIO‐TEK PowerWave XS spectrophotometer) at […].[20] The percentage of viable cells was calculated in relation to the untreated control group to determine the cytotoxic concentration in 50 % of the cells (CC50). The control groups of each experiment received the same experimental conditions as the treated groups (cell concentration used, temperature, CO2, and incubation time).

[3] = Cytotoxicity assay in mammalian cells (MTT), fibroblasts, 72 h; type: cell-based; conditions: mouse, pH 7.2, 50 % inhibition of fibroblast growth, 72 h, MTT
Experimental: as §1, §2, §4

[4] = tested on: promastigote forms of Leishmania amazonensis (WHOM/BR/75/JOSEFA strain); assay: Antiproliferative assay (XTT), promastigote forms, 72 h; type: cell-based; conditions: for IC50: Leishmania amazonensis, 72 h, read-out: L. amazonensis IC50; for SIL-F, selectivity index (Fibroblast CC50/L. amazonensis IC50): fibroblast vs promastigote; for SIL-M, selectivity index (Macrophages CC50/L. amazonensis IC50): macrophages vs promastigote
Experimental: as §1, §2, §3

Row | SMILES | IC50 ([1]; epimastigote form, XTT) | melting point | SIT-F, selectivity index (Fibroblast CC50/T. cruzi IC50) [1] | SIT-M, selectivity index (Macrophages CC50/T. cruzi IC50) [1] | CC50 at 48 h ([2]; J774 A1 macrophages) | CC50 at 72 h ([3]; L929 fibroblast cells) | IC50 ([4]; promastigote form, XTT) | SIL-F, selectivity index (Fibroblast CC50/L. amazonensis IC50) [4] | SIL-M, selectivity index (Macrophages CC50/L. amazonensis IC50) [4] | IC50 [1] | CC50 at 48 h [2] | CC50 at 72 h [3] | IC50 [4]
1 | O=C(N/N=C/c1ccccc1)c1noc(-c2ccc(F)cc2)c1CNc1ccc(Cl)cc1 [4 cb] | 98.7 ± 10.1 µM | 167.9 to 170.5 °C | 3.86 | 3.69 | 365 ± 8.7 µM | 381 ± 6.9 µM | 87.3 ± 6.4 µM | 4.37 | 4.18 | – | – | – | –
2 | NNC(=O)c1noc(-c2ccccc2)c1CNc1ccc(Cl)cc1 [3 bb] | – | 190.6 to 191.6 °C | 7.38 | 5.93 | – | – | – | 8.07 | 6.48 | 39 ± 7.1 µM | 231 ± 8.1 µM | 288 ± 9.9 µM | 35.7 ± 6 µM
3 | O=C(N/N=C/c1ccccn1)c1noc(-c2ccc(F)cc2)c1CNc1ccccc1 [5 ca] | 69.5 ± 3.7 µM | 157.7 to 159.6 °C | 5.79 | 5.38 | 374 ± 5.8 µM | 403 ± 8.6 µM | 74.8 ± 2.9 µM | 5.38 | 5.01 | – | – | – | –
4 | CCOC(=O)c1noc(-c2ccc(Cl)cc2)c1CNc1ccc(Cl)cc1 [2 db] | 22.4 ± 2.6 µM | 173.3 to 175.4 °C | 4.44 | 3.92 | 87.9 ± 4.6 µM | 99.5 ± 5.7 µM | 21.6 ± 2.2 µM | 4.61 | 4.07 | – | – | – | –
5 | NNC(=O)c1noc(-c2ccccc2)c1CNc1ccccc1 [3 ba] | 39.5 ± 5.6 µM | 151.3 to 152.4 °C | 4.78 | 2.79 | 110 ± 5.6 µM | 189 ± 9 µM | 34.9 ± 2.9 µM | 5.41 | 3.16 | – | – | – | –
6 | COc1ccc(NCc2c(C(=O)NN)noc2-c2ccc(F)cc2)cc1 [3 cc] | 65.3 ± 3.6 µM | 171.1 to 173.6 °C | 2.54 | 2.29 | 150 ± 4.4 µM | 166 ± 9.6 µM | 59.2 ± 5.7 µM | 2.80 | 2.53 | – | – | – | –
7 | O=C(N/N=C/c1ccccc1)c1noc(-c2ccc([N+](=O)[O-])cc2)c1CNc1ccc(Cl)cc1 [4 ab] | 147 ± 10.7 µM | 177.6 to 179 °C | 2.71 | 1.96 | 287.4 ± 2.3 µM | 398 ± 6.9 µM | 133 ± 8.8 µM | 3.01 | 2.18 | – | – | – | –
8 | O=C(N/N=C/c1ccccn1)c1noc(-c2ccc(Cl)cc2)c1CNc1ccc(Cl)cc1 [5 db] | 97.3 ± 3.6 µM | 175.7 to 176.4 °C | 2.08 | 2.04 | 198 ± 4.6 µM | 203 ± 3.1 µM | 87.9 ± 2 µM | 2.30 | 2.26 | – | – | – | –
9 | O=C(N/N=C/c1ccc(-c2cccs2)s1)c1noc(-c2ccc([N+](=O)[O-])cc2)c1CNc1ccccc1 [6 aa, 3‐[(2E)‐N'‐(2,2'‐bithienyl‐5‐methylene)hydrazinecarbonyl]‐4‐(phenyl)aminomethyl‐5‐(4‐nitrophenyl)isoxazole] | 38.4 ± 2.1 µM | 232.5 to 233.9 °C | 7.48 | 5.46 | 210 ± 9.6 µM | 287 ± 7.3 µM | 32.9 ± 0.9 µM | 8.74 | 6.37 | – | – | – | –
10 | NNC(=O)c1noc(-c2ccc(Cl)cc2)c1CNc1ccc(Cl)cc1 [3 db] | 55.7 ± 10.2 µM | 175.9 to 177.8 °C | 6.84 | 6.03 | 336 ± 5.1 µM | 381 ± 4.2 µM | 59.1 ± 4.6 µM | 6.44 | 5.68 | – | – | – | –

Second part, led by results:

Row | IC50 ([1]; epimastigote form, XTT) | melting point | SMILES | SIT-F, selectivity index (Fibroblast CC50/T. cruzi IC50) [1] | SIT-M, selectivity index (Macrophages CC50/T. cruzi IC50) [1] | CC50 at 48 h ([2]; J774 A1 macrophages) | CC50 at 72 h ([3]; L929 fibroblast cells) | IC50 ([4]; promastigote form, XTT) | SIL-F, selectivity index (Fibroblast CC50/L. amazonensis IC50) [4] | SIL-M, selectivity index (Macrophages CC50/L. amazonensis IC50) [4] | IC50 [1] | CC50 at 48 h [2] | CC50 at 72 h [3] | IC50 [4]
11 | 69.6 ± 3.9 µM | 169.9 to 172 °C | O=C(N/N=C/c1ccccc1)c1noc(-c2ccccc2)c1CNc1ccccc1 [4 ba] | 5.87 | 5.54 | 385.6 ± 3.2 µM | 409 ± 7.8 µM | 76.8 ± 8.7 µM | 5.32 | 5.02 | – | – | – | –
12 | 35.1 ± 4.6 µM | 92.6 to 94.4 °C | O=C(N/N=C/c1ccccc1)c1noc(-c2ccc([N+](=O)[O-])cc2)c1CNc1ccccc1 [4 aa, 3‐[(2E)‐N'‐(Benzylidene)hydrazinecarbonyl]‐4‐(phenyl)aminomethyl‐5‐(4‐nitrophenyl)isoxazole] | – | 2.86 | 100 ± 6 µM | 118 ± 7.3 µM | 40.7 ± 3.2 µM | 2.90 | 2.47 | – | – | – | –
13 | 18.1 ± 2.4 µM | 165.5 to 167 °C | COc1ccc(NCc2c(C(=O)N/N=C/c3ccc(-c4cccs4)s3)noc2-c2ccccc2)cc1 [6 bc] | 10.9 | 9.42 | 170 ± 3.3 µM | 198 ± 5.9 µM | 17.2 ± 3.1 µM | 11.5 | 9.91 | – | – | – | –
14 | 78.6 ± 7.4 µM | 181.7 to 185.5 °C | COc1ccc(NCc2c(C(=O)N/N=C/c3ccccc3)noc2-c2ccc(F)cc2)cc1 [4 cc] | 3.91 | 3.81 | 300 ± 8.9 µM | 308 ± 9.8 µM | 56.3 ± 8.5 µM | 5.46 | 5.32 | – | – | – | –
15 | 26.7 ± 3.9 µM | 197.6 to 199.6 °C | COc1ccc(NCc2c(C(=O)N/N=C/c3ccccc3)noc2-c2ccccc2)cc1 [4 bc] | 7.85 | 6.61 | 176 ± 6.6 µM | 210 ± 4.7 µM | 21.5 ± 0.8 µM | 9.75 | 8.20 | – | – | – | –
